According to patent publication US20110263423A1, “Plant Health Composition” (BASF SE, priority 2008, published 2011):

Columns and labels:
Type in all cases: in vivo
[1] = system: Soybeans (Pioneer 93-M-11, Crow C300 42); experiment: Soybean field trials, Dinuba 2008 (Example 4)
Experimental: Soybeans were grown in 2008 in two field trials at the BASF experimental station in Dinuba, 10181 Avenue 416, Calif., U.S.A. In one trial, the variety Pioneer 93-M-11 was planted at a seeding rate of 88 kg/ha. In a second trial, the variety Crow C300 42 was planted at the same seeding rate. Both trials were setup as randomized complete block design with 5 replications, each. Plot size was 42 m^2. Compound la was used as an EC formulation (62.5 g a.i./L) with a dose rate of 0.64 L per hectar (40 g a.i./ha). The formulation was applied in a total spray volume of 300 L/ha. Compound Ia was sprayed at growth stage 34/37 (BBCH) with a tractor mounted spray boom with VS11003 spray nozzles at 3 bar spray pressure.
(§1) No disease symptoms were visible at the application time and no symptoms were detected at later stages.
Green leaf area, as an indicator of plant vigor, was assessed in the second trial (variety Crow C300 42) when all pods had reached their final size by estimating the green leaf area in 10 randomly chosen plants per plot. At maturity the grain was harvested and the grain yield per plot, as an indicator of plant yield, was determined (kg/plot). Finally, the grain yield per hectare was calculated (dt/ha). Thousand Grain Weight (TGW) was determined in the second trial (Crow C300 42).

[2] = system: spring wheat (cv. Passat); experiment: Spring wheat pot trial, moderate drought stress (Example 3)
Experimental: Spring wheat (cv. Passat) was cultivated in Mitcherlich pots as described above in example 1. The experiment was conducted with 6 replications in a vegetation hall. Experiments were carried out under semi controlled conditions at very low disease-pressure with insignificant infection rates, protected from any undesired rain or water impact. The water consumption of each pot was calculated on the basis of the recorded measurements of the weight of the pots prior to each irrigation event up to the defined set point. Pots without crop coverage were used to estimate the evaporation of the soil.
Nitrogen fertilizer (totally 1.75 g N/pot) was added in equal amounts at 3 stages to allow optimal growth conditions throughout the life cycle. All plants/pots were grown at optimal water supply by watering 2-3 times a day to 60% of the water holding capacity of the soil until growth stage 55 (BBCH). Then, pots were only watered to 30% of the maximum water holding capacity of the soil to apply moderate drought stress. Compound Ia (62.5 g/l, 2 L in 400 L water/ha) was applied at growth stage 39/49 (BBCH scale), which is an EC formulation of comound Ia. Control plants were not treated.
At maturity of the plants the grain was harvested and uniformly dried to 5% moisture content. Number of grains per pot was counted after harvest. Thousand Grain Weight (TGW), as an indicator of plant yield, was calculated based on grain yield per pot and number of grains per pot. Transpiration was calculated on the basis of the amount of water added to the respective pots and the estimated soil evaporation. Water use efficiency, as an indicator of drought stress tolerance of a plant, was calculated based on the respective transpiration per pot.

[3] = system: Maize (Pioneer 34-N-45); experiment: Maize field trial, mixture with epoxiconazol, Colby synergism (Example 6); conditions: 50 g a.i./ha of each compound
Experimental: Maize was grown in 2008 in a field trial at the BASF experimental station in Dinuba, 10181 Avenue 416, Calif., U.S.A. The variety Pioneer 34-N-45 was planted at a seeding rate of 35.000 plants/ha. The trial was setup as a randomized bloc design with 5 replications, each. Plot size was 43 m^2.
The maize plants were either untreted, treated with epoxiconazol (A3), with compound Ia, and with a mixture comprising compound Ia and epoxiconazol. Epoxiconazol was applied as the commercial formulation OPUS™ (125 g a.i./L, SC formulation) at a dose rate of 0.4 L/ha (50 g a.i./ha). Compound Ia was used as an EC formulation (62.5 g a.i./L) with a dose rate of 0.8 L per hectar (50 g a.i./ha). Epoxiconazol was applied together with compound Ia (as a mixture) using a co-formulation of both compounds (EC formulation, 62.5 g a.i./L each) with a product rate of 0.8 L/ha. The formulation was applied in a total spray volume of 300 L/ha. Compound Ia was sprayed at growth stage 51/55 (BBCH) with a tractor mounted spray boom with VS11003 spray nozzles at 3 bar spray pressure.
as §1
At maturity the grain was harvested and the grain yield per plot, as an indicator of plant yield, was determined (kg/plot). Finally, the grain yield per hectare was calculated (dt/ha).
The efficacy was calculated as % increase of the grain yield (dt/ha) by each treatment compared to the untreated control.
The expected efficacies of the combinations of the active compounds were estimated using Colby's formula (Colby, S. R., Calculating synergistic and antagonistic responses of herbicide combinations, Weeds, 15, pp. 20-22, 1967) and compared with the observed efficacies.
E=x+y−x·y/100 Colby's formula: • E expected efficacy, expressed in % of the untreated control, when using the mixture of the active compounds A and B at the concentrations a and b • x efficacy, expressed in % of the untreated control, when using the active ingredient A at the concentration a • y efficacy, expressed in % of the untreated control, when using the active ingredient B at the concentration b

[4] = 40 g a.i./ha, listed as compound Ia
[5] = moderate drought stress, 2 L/ha EC at BBCH 39/49

## Cn1cc(C(=O)Nc2ccccc2-c2cc(F)c(F)c(F)c2)c(C(F)F)n1 [Compound Ia, N-(3′,4′,5′-trifluorobiphenyl-2-yl)-3-difluoromethyl-1-methyl-1H-pyrazole-4-carboxamide]
[1]; 40 g a.i./ha
  Soybean grain yield (Trial 1) Pioneer 93M11, increase as % of untreated: (+11.6%)
  Soybean grain yield (Trial 2) Crow C300 42, increase as % of untreated: (+6.5%)
  Soybean grain yield, Mean of two trials, increase as % of untreated: (+8.5%)
[1]; 40 g a.i./ha at BBCH 34/37
  Soybean grain yield (Trial 1) Pioneer 93M11: 45.5 dt/ha
  Soybean grain yield (Trial 2) Crow C300 42: 67.1 dt/ha
  Soybean grain yield, Mean of two trials: 56.3 dt/ha
[1]; [4]
  Soybean grain yield (Trial 1) Pioneer 93M11, increase as % of untreated: ~12%
  Soybean grain yield, Mean of two trials, increase as % of untreated: 8.5%
[1]; soybean Crow C300 42 (second trial), 40 g a.i./ha at BBCH 34/37
  TGW: 177.0 g
[1]; soybean Crow C300 42 (second trial), 40 g a.i./ha at BBCH 34/37, pods at final size
  % Green leaf area: 88.4%
[1]; soybean Crow C300 42, 40 g a.i./ha
  TGW, increase as % of untreated: (+5.7%)
[2]; moderate drought stress
  Thousand Grain Weight, change vs untreated control: (+4%)
  Transpiration, change vs untreated control: (−4%)
  Water use efficiency, change vs untreated control: (+3%)
[2]; moderate drought stress (30% water holding capacity from BBCH 55), 2 L/ha EC at BBCH 39/49
  Transpiration: 26.5 L water/pot
[2]; [5]
  Thousand Grain Weight: 31.2 g
  Water use efficiency: 2.02 g grain/L water
[3]
  Observed efficacy (% increase of grain yield vs untreated control): 0.4%
[3]; BBCH 51/55
  Grain yield: 154.9 dt/ha
